# Measurements from ChEMBL document CHEMBL4219040, “Modulation of Glycine-Mediated Spinal Neurotransmission for the Treatment of Chronic Pain” (J Med Chem, 2018).
# Tests used:
# [1] = target: T1, Glycine receptor alpha-3/beta (Homo sapiens, UniProt O75311+P48167); experiment: Positive allosteric modulation of human GlyRalpha3beta expressed in CHO cells assessed as potentiation of EC5 to EC10 glycine-induced response at 10 uM by manual patch clamp assay; type: cell-based
# [2] = target: T1, Glycine receptor alpha-3/beta; experiment: Positive allosteric modulation of human GlyRalpha3beta expressed in CHO cells assessed as potentiation of EC20 glycine-induced ion flux at 10 uM by HT assay; type: cell-based
# [3] = target: T1, Glycine receptor alpha-3/beta; experiment: Positive allosteric modulation of human GlyRalpha3beta expressed in CHO cells assessed as potentiation of EC20 glycine-induced response at 5.9 uM by fluorescence based HTS assay; type: cell-based
# [4] = target: T2, P2X purinoceptor 7 (Mus musculus) (UniProt Q9Z1M0); experiment: Agonist activity at P2X7 receptor in C57Bl6 mouse lumbar spinal cord slices assessed as increase in glycinergic inhibitory postsynaptic currents after 20 to 26 mins by electrophysiology method relative to control; design: scale not given: the % may be the effect or the level left
# T2 sequence (whole entry): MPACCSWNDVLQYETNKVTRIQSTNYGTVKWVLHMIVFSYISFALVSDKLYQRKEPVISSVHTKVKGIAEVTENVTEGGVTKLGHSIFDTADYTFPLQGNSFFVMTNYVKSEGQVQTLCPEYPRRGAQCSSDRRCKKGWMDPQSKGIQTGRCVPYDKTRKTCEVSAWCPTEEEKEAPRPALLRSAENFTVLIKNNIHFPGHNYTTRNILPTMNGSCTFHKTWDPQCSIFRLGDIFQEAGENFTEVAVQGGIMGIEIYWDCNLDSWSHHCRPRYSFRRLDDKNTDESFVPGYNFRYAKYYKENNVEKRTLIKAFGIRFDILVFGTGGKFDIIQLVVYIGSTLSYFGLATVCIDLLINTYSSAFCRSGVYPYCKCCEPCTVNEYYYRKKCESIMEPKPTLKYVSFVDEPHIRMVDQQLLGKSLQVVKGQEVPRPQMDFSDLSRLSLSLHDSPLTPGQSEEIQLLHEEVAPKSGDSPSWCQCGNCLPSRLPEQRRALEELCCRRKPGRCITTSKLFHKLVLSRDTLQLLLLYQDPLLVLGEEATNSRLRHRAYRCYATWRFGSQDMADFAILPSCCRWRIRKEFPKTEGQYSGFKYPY
# [5] = target: T3, Sodium- and chloride-dependent glycine transporter 1 (Homo sapiens, UniProt P48067); experiment: Inhibition of human GlyT-1
# T3 sequence (P48067 whole entry): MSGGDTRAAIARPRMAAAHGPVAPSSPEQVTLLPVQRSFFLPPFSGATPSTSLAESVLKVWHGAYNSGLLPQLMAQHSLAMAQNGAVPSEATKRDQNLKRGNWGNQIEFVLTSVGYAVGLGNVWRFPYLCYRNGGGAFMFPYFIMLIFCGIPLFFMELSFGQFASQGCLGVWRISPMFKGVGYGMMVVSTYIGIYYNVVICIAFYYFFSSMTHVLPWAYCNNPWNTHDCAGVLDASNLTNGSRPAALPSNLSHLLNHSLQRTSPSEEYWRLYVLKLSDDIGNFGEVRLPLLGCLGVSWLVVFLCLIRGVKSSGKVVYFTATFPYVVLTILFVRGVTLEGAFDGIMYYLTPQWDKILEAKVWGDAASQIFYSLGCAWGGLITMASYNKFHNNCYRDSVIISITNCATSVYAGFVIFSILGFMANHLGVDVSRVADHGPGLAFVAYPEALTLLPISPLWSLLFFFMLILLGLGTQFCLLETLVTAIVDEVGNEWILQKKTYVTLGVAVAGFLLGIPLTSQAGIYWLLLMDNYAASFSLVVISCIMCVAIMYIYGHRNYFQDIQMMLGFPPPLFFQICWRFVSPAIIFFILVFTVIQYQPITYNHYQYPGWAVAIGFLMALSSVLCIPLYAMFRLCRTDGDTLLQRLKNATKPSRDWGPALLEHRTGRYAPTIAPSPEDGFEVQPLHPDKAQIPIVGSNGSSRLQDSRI
# Rattus norvegicus [6] = experiment: Analgesic activity in sc dosed formalin-induced pain rat model by formalin test; type: functional
# [7] = target: 5-hydroxytryptamine receptor 2A (Homo sapiens, UniProt P28223); experiment: Antagonist activity at human 5-HT2A; type: functional
# Chain of 5-hydroxytryptamine receptor 2A (P28223 whole entry): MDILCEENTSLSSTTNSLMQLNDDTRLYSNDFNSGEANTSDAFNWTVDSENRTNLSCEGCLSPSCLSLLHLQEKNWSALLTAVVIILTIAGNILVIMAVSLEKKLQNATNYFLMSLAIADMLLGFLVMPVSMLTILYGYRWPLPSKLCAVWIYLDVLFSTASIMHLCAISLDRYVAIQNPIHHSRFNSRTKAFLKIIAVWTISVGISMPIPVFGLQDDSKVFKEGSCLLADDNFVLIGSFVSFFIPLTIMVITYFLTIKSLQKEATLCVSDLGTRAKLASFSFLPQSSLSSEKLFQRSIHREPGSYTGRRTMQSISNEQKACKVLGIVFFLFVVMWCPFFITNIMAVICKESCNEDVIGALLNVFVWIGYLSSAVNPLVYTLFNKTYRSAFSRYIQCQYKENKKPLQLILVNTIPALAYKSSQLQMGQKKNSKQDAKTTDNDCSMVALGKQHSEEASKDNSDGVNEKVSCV
# Rattus norvegicus [8] = experiment: Antiallodynic activity in po dosed rat spinal nerve ligation model assessed as reduction in mechanical allodynia; type: functional
# [9] = target: T1, Glycine receptor alpha-3/beta; experiment: Positive allosteric modulation of human GlyRalpha3beta expressed in CHO cells assessed as potentiation of EC20 glycine-induced ion flux by HT assay; type: cell-based
# Rattus norvegicus [10] = organism: Rattus norvegicus; experiment: Antiallodynic activity in Sprague-Dawley rat model of spared nerve injury-induced allodynia assessed as inhibition of electrically evoked inhibitory post-synaptic current amplitude in spinal cord by electrophysiology method; type: functional
# [11] = target: T4, Sodium- and chloride-dependent glycine transporter 2 (Homo sapiens, UniProt Q9Y345); experiment: Inhibition of GlyT-2 (unknown origin)
# T4 sequence (Q9Y345 whole entry): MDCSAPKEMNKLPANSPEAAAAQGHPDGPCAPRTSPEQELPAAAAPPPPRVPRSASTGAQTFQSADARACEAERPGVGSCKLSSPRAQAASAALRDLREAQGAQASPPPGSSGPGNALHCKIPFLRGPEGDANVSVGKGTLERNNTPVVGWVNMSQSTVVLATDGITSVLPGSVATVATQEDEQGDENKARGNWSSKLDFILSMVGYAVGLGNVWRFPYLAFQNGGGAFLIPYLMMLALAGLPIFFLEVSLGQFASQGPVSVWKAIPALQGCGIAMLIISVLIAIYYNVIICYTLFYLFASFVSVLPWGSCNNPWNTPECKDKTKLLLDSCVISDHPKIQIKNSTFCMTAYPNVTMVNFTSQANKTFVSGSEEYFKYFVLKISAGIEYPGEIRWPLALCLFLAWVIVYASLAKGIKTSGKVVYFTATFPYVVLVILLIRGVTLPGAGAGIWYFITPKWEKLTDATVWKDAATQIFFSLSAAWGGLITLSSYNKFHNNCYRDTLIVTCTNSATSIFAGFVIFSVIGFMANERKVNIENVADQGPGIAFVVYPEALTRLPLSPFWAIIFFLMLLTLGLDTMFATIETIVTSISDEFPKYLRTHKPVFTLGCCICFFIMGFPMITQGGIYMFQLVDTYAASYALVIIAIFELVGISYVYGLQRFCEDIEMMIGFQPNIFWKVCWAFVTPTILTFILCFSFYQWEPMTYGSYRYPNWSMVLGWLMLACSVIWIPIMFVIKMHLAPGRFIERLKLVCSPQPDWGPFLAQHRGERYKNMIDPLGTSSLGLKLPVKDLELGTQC
# Mus musculus [12] = experiment: Analgesic activity in CFA-induced mechanical hyperalgesia C57BL/6J mouse model assessed as reduction in mechanical paw withdrawal threshold administered sc measured after 2 hrs; type: functional, organism-based
# Mus musculus [13] = experiment: In vivo inhibition of GlyT in CFA-induced mechanical hyperalgesia C57BL/6J mouse model assessed as increase in extracellular glycine level in CSF at 200 mg/kg, sc relative to basal level; type: functional
# Mus musculus [14] = experiment: Antiallodynic activity in ddY mouse partial sciatic nerve ligation-injury model assessed as inhibition of mechanical allodynia by measuring paw withdrawal threshold in response to probing with von Frey hairs administered via iv route; type: functional
# Rattus norvegicus [15] = organism: Rattus norvegicus; experiment: Antiallodynic activity in spinal cord injury Sprague-Dawley rat model assessed as inhibition of non-voiding contraction frequency at 10 ug, it relative to control; type: functional
# [16] = Unbound brain to plasma concentration ratio in mouse; type: ADME, cell-free; settings: read-out: K(p,uu,brain)
# Homo sapiens = organism: Homo sapiens; experiment: Selectivity ratio of IC50 for human GlyT-1 expressed in HEK293 cells to IC50 for human GlyT-2 expressed in HEK293 cells; type: cell-based
# Rattus norvegicus [17] = organism: Rattus norvegicus; experiment: Antiallodynic activity in spinal cord injury Sprague-Dawley rat model assessed as inhibition of non-voiding contraction frequency at 30 ug, it relative to control; type: functional
# [18] = target: T4, Sodium- and chloride-dependent glycine transporter 2; experiment: Inhibition of human GlyT-2 expressed in HEK293 cells assessed as reduction in [3H]-glycine uptake preincubated for 30 mins followed by 3H]-glycine addition measured after 30 mins by liquid scintillation counting method; type: cell-based
# [19] = target: T3, Sodium- and chloride-dependent glycine transporter 1; experiment: Inhibition of human GlyT-1 expressed in HEK293 cells assessed as reduction in [3H]-glycine uptake preincubated for 30 mins followed by 3H]-glycine addition measured after 30 mins by liquid scintillation counting method; type: cell-based
# Rattus norvegicus [20] = organism: Rattus norvegicus; experiment: Antiallodynic activity in spinal cord injury Sprague-Dawley rat model assessed as inhibition of non-voiding contraction amplitude at 30 ug, it relative to control; type: functional
# Rattus norvegicus [21] = organism: Rattus norvegicus; experiment: Antiallodynic activity in spinal cord injury Sprague-Dawley rat model assessed as inhibition of non-voiding contraction amplitude at 10 ug, it relative to control; type: functional
# [22] = Toxicity in ip dosed formalin-induced pain mouse model; type: organism-based; settings: in vivo
# Mus musculus [23] = experiment: In vivo receptor occupancy at GlyT-2 in formalin-induced pain mouse model at 20 mg/kg, ip; type: functional
# [24] = target: T3, Sodium- and chloride-dependent glycine transporter 1; experiment: Inhibition of human GlyT-1 expressed in CHO cells assessed as reduction in [3H]-glycine uptake; type: cell-based
# Mus musculus [25] = experiment: Analgesic activity in formalin-induced pain mouse model assessed as reduction in phase 2 paw licking behavior at 100 mg/kg, ip; type: functional; design: scale not given: the % may be the effect or the level left
# Mus musculus [26] = experiment: In vivo receptor occupancy at GlyT-2 in formalin-induced pain mouse model at 0.06 mg/kg, ip; type: functional
# Mus musculus [27] = experiment: Analgesic activity in formalin-induced pain mouse model assessed as reduction in phase 2 paw licking behavior at 25 mg/kg, ip; type: functional; design: scale not given: the % may be the effect or the level left
# Rattus norvegicus [28] = organism: Rattus norvegicus; experiment: Inhibition of GlyT in rat spinal cord lamina X neuron assessed as increase in extracellular glycine level at 10 uM relative to basal level; design: scale not given: the % may be the effect or the level left
# Mus musculus [29] = experiment: In vivo receptor occupancy at GlyT-2 in formalin-induced pain mouse model at 25 mg/kg, ip; type: functional
# Mus musculus [30] = experiment: In vivo receptor occupancy at GlyT-2 in formalin-induced pain mouse model at 100 mg/kg, ip; type: functional
# T1 sequence (O75311 whole entry): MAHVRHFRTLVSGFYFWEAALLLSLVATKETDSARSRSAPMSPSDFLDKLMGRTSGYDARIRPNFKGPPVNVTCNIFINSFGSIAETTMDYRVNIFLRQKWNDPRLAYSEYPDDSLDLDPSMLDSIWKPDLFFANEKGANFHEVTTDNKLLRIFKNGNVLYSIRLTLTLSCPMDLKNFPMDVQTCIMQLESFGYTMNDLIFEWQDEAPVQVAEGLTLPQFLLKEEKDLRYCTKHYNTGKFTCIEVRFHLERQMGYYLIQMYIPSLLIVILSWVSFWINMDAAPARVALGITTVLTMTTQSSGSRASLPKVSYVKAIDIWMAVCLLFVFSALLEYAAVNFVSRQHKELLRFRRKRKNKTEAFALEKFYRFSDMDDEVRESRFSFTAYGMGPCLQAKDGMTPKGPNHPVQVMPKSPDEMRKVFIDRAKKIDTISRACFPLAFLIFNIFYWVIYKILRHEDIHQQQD
# T1 sequence (P48167 whole entry): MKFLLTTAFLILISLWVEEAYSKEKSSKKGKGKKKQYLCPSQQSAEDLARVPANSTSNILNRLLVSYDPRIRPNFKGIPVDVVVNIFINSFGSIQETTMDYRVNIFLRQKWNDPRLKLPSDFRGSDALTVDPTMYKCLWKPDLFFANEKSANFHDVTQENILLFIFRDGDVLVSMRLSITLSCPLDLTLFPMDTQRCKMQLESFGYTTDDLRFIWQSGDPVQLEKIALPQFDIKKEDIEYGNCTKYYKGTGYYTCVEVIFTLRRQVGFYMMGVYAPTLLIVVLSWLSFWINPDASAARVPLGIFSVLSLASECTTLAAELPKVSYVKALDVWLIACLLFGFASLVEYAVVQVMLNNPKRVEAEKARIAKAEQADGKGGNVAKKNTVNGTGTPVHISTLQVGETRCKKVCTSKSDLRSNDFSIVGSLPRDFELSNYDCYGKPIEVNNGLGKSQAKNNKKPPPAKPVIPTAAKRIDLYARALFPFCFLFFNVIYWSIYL
structure (smiles),measurement,setting,value
CN1C(=O)[C@@H]2CN(S(=O)(=O)c3ccc4c(c3)OCO4)C[C@@H]2c2cnccc21,Activity,[1],1350%
same,Activity,[2],95%
same,Activity,[3],94%
Nc1ncnc2c1ncn2[C@@H]1O[C@H](COP(=O)(O)OP(=O)(O)OP(=O)(O)O)[C@@H](OC(=O)c2ccc(C(=O)c3ccccc3)cc2)[C@H]1O,Activity,[4],135%
COc1ccc2c(c1)CC[C@H](CN(C)CC(=O)O)[C@@H]2c1ccccc1 [ORG-25935],IC50,[5],0.1 µM
CCCCOc1c(OC)cc(C(=O)NCC2(N(C)C)CCOCC2)cc1OC,ED50,Rattus norvegicus [6],20 mg/kg
same,IC50,[7],1.3 µM
same,ED50,Rattus norvegicus [8],80 mg/kg
O=C(O)c1ccc(C[C@@H]2Sc3ccccc3N(Cc3ccccc3C(F)(F)F)C2=O)cc1F,Activity,[1],259%
same,Activity,[2],44%
same,Activity,[3],161%
O=C(O)c1ccc(C[C@H]2Sc3c(F)cccc3N(Cc3ccccc3C(F)(F)F)C2=O)cc1,EC50,[9],0.661 µM
same,Activity,[1],396%
same,Activity,[2],59%
same,Activity,[3],52%
O=S(=O)(NCCOc1cccc2cccnc12)c1ccccc1,EC50,[9],3.98 µM
same,Activity,[1],2710%
same,Activity,[2],182%
same,Activity,[3],65%
CN1c2ncccc2N(Cc2ccccc2C(F)(F)F)C(=O)[C@H]1Cc1ccc(C(N)=O)cc1,Activity,[1],303%
same,Activity,[2],64%
same,Activity,[3],28%
C#Cc1cc(C(=O)OC)cc(-c2ncco2)c1,EC50,[9],10.2 µM
same,Activity,[1],255%
same,Activity,[2],49%
same,Activity,[3],52%
NS(=O)(=O)c1cc2c(cc1Cl)NC(C1CC3C=CC1C3)NS2(=O)=O (stereo not drawn) [CYCLOTHIAZIDE],inhibition (INH),Rattus norvegicus [10],37.9%
CCCCC/C=C\C/C=C\C/C=C\C/C=C\CCCC(=O)NCC(=O)O [ARACHIDONOYL GLYCINE],IC50,[11],3 µM
CCNCC(=O)O,EC50,Mus musculus [12],98 mg/kg
same,inhibition in vivo at 200 mg/kg,Mus musculus [13],25%
NCC1(CC(=O)O)CCCCC1 [GABAPENTIN],ED50,Mus musculus [14],8200 ng
CNCC(=O)O [SARCOSINE],IC50,[5],91 µM
N[C@@H](COC(c1cccc(F)c1)c1ccccc1OCc1ccccc1)C(=O)O (stereo partly drawn),inhibition (INH),Rattus norvegicus [15],65%
same,Kp uu,[16],0.036
same,Ratio IC50,Homo sapiens,40
same,inhibition (INH),Rattus norvegicus [17],76%
same,IC50,[18],0.1 µM
same,IC50,[19],4 µM
same,inhibition (INH),Rattus norvegicus [20],37%
same,inhibition (INH),Rattus norvegicus [21],26%
COc1cc(C(=O)NCC2(N(C)C)CCCC2)cc(OC)c1OCc1ccccc1,MTD,[22],2 mg/kg
same,Occ,Mus musculus [23],82%
same,Kp uu,[16],0.5
same,IC50,[24],> 100 µM
same,Activity,Mus musculus [25],80%
same,Occ,Mus musculus [26],6%
same,Activity,Mus musculus [27],33%
same,Activity,Rattus norvegicus [28],337%
same,Occ,Mus musculus [29],36%
same,ED50,Mus musculus [14],11 ng
same,Occ,Mus musculus [30],60%
O=[N+]([O-])c1cccc(S(=O)(=O)NCCOc2cccc3cccnc23)c1,Activity,[1],136%
same,Activity,[2],98%
same,Activity,[3],23%
CC(C)(C)c1cc(C(C)(C)C)c(O)c(C(=O)O)c1O,EC50,[9],0.0135 µM
same,Activity,[1],2060%
same,Activity,[2],182%
same,Activity,[3],67%
